The target in series [1] is T1, CETP (Homo sapiens, UniProt P11597).
T1 construct: endogenous in cells; host or cells: patients in Phase III clinical trials (plasma CETP)
T1 sequence (P11597 18-493): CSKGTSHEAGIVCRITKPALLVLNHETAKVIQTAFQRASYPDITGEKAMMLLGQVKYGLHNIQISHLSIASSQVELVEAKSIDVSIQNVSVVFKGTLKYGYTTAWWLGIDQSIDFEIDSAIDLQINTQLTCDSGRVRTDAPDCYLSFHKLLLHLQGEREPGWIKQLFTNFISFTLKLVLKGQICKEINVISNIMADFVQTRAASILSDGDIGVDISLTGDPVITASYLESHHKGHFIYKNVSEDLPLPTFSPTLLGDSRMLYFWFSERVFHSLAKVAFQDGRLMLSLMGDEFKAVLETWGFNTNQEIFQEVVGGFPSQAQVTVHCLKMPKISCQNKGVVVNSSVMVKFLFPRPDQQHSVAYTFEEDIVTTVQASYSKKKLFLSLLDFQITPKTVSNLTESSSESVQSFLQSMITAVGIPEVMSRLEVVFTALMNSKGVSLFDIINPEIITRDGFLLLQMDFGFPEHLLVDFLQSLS
To be noted: Phase III, with atorvastatin concomitantly vs atorvastatin alone, trial terminated; cited from earlier work.

Series [2] deals with endothelial-dependent vasodilatation. The series is described as follows: ACh-induced endothelial-dependent vasodilatation under selective pharmacological blockade. On the set-up: species or system mice. An excerpt: (§1) Selective pharmacological blockade of the signaling pathways responsible for endothelial-dependent vasodilatation (Vanhoutte et al., Acta Physiol (Oxf). (2017) 219:22-96) was then used to identify the mechanism responsible for the improvement observed in Adcy9^Gt/Gt mice.

The subject of series [3] is flow-mediated vasodilatation. The experiment in a line: Flow-mediated vasodilatation under pharmacological blockade. The following applies: Adcy9^Gt/Gt mice.
Text: as §1

In series [4] the target is T1, CETP. The following applies: cited from earlier work.
The mark [5] stands for this setting: 600 mg dalcetrapib vs placebo, patients with recent ACS.

In the case of `CCOC(=O)N1c2ccc(C(F)(F)F)cc2[C@@H](N(Cc2cc(C(F)(F)F)cc(C(F)(F)F)c2)C(=O)OC)C[C@H]1CC` [torcetrapib], the mortality entry at CETP [1] is recorded as “incidence of mortality”.
For the molecule `NC(=NCCC[C@H](N)C(=O)O)N[N+](=O)[O-]` [L-NNA], the ACh-induced vasodilatation result in series [2] (Adcy9^Gt/Gt mice) and in series [2] (WT mice) was “inhibited significantly” in each case. For the same molecule, the flow-mediated vasodilatation entry in series [3] is “numerically reduced”.
`CCC(CC)CC1(C(=O)Nc2ccccc2SC(=O)C(C)C)CCCCC1` [dalcetrapib]: on CETP [4] (setting [5]), the HDL-c result was “marked increase” and the cardiovascular events entry is “did not show a significant reduction”. Besides, the “efficacy relative to statins alone” value at CETP [4] (Phase III, trial halted) is listed as “lack of efficacy”.
With `Cc1ccc(Cl)c(Nc2ccccc2C(=O)O)c1Cl` [meclofenamate], in series [2] (Adcy9^Gt/Gt mice), the ACh-induced vasodilatation entry is reported as “inhibited”.

Source of the values: patent US20200222406A1, “METHODS FOR TREATING OR PREVENTING CARDIOVASCULAR DISORDERS AND LOWERING RISK OF CARDIOVASCULAR EVENTS” (DALCOR PHARMA UK LTD., LEATHERHEAD, ZUG BRANCH, priority 2017, published 2020).
